Test results from publication PMC5540273, “Progress towards a public chemogenomic set for protein kinases and a call for contributions” (PLoS ONE, 2017).

Columns and labels:
Assay in all cases: KINOMEscan competition binding
[1] = target: BMPR1A (Homo sapiens, UniProt P36894); conditions: read-out: %Inh BMPR1A
[2] = target: BMPR1B (Homo sapiens, UniProt O00238); conditions: read-out: %Inh BMPR1B
[3] = target: T1, CDC2L2 (Homo sapiens, UniProt Q9UQ88); conditions: read-out: %Inh CDC2L2
T1 sequence (Q9UQ88 1-783): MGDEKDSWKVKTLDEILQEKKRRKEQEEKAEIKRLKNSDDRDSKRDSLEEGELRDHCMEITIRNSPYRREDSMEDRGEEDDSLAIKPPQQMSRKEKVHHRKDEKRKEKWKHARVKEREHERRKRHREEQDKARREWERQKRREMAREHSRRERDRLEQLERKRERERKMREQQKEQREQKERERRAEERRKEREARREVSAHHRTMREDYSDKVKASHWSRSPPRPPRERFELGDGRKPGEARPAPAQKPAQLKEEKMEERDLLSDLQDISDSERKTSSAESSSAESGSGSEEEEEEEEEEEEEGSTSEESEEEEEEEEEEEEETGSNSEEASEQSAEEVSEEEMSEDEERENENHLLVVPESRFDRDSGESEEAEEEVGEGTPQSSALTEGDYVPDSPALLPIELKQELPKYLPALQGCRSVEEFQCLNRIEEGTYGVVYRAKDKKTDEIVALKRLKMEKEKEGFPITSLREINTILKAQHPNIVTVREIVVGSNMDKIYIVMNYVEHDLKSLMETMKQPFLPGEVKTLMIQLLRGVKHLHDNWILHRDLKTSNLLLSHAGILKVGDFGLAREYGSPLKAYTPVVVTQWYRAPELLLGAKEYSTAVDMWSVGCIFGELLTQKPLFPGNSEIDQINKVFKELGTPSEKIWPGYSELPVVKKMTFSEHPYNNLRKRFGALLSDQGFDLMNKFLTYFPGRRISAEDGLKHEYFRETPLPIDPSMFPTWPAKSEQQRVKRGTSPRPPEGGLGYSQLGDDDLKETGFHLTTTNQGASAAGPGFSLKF

[4] = target: CDK4 (Homo sapiens, UniProt P11802); conditions: read-out: %Inh CDK4
[5] = target: CHEK2 (Homo sapiens, UniProt O96017); conditions: read-out: %Inh CHEK2
Sequence of CHEK2 (O96017 whole entry): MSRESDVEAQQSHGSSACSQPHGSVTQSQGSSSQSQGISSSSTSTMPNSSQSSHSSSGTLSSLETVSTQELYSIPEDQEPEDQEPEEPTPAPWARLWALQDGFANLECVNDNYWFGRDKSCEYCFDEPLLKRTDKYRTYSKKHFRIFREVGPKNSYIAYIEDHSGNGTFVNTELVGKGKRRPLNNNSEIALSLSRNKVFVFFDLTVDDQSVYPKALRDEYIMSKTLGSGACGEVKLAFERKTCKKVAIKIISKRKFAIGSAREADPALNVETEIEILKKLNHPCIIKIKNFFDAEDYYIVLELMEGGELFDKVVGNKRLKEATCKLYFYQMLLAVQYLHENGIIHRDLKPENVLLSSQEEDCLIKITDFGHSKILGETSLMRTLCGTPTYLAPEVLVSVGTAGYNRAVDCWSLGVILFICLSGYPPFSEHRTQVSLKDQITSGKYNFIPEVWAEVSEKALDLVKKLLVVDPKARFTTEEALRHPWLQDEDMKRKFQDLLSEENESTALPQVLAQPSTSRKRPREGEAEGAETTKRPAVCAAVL

[6] = target: CSK (Homo sapiens, UniProt P41240); conditions: read-out: %Inh CSK
Sequence of CSK (P41240 whole entry): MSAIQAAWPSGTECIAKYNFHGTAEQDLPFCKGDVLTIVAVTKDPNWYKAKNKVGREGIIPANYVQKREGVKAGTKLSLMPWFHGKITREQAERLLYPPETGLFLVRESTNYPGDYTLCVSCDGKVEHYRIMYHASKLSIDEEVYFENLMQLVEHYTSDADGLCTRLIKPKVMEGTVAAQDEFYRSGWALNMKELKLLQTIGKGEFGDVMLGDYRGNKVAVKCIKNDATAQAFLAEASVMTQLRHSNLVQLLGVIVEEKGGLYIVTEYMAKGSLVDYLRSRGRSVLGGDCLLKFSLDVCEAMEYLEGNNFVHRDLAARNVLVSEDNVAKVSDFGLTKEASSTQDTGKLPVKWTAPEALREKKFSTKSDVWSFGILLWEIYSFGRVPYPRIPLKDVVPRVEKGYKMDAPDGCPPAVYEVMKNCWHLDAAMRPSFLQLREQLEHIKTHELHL

[7] = target: T2, CTK (Homo sapiens, UniProt P42679); conditions: read-out: %Inh CTK
T2 sequence (P42679 1-507): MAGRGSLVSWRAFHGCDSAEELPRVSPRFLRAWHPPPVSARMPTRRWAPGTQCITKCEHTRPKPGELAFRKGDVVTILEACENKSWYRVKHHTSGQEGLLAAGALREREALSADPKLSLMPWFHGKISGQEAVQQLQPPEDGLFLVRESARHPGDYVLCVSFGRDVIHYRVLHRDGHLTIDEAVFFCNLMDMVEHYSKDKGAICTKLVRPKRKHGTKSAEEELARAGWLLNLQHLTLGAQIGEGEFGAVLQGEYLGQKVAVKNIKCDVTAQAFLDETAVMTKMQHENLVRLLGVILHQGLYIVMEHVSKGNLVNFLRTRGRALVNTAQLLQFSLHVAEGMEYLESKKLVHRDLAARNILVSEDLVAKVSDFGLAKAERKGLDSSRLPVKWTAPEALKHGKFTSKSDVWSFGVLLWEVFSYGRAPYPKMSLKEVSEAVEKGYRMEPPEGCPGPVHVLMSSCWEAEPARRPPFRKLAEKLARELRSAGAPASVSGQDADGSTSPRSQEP

[8] = target: FAK (Homo sapiens, UniProt Q05397); conditions: read-out: %Inh FAK
[9] = target: FGFR1 (Homo sapiens, UniProt P11362); conditions: read-out: %Inh FGFR1
Sequence of FGFR1 (P11362 22-822): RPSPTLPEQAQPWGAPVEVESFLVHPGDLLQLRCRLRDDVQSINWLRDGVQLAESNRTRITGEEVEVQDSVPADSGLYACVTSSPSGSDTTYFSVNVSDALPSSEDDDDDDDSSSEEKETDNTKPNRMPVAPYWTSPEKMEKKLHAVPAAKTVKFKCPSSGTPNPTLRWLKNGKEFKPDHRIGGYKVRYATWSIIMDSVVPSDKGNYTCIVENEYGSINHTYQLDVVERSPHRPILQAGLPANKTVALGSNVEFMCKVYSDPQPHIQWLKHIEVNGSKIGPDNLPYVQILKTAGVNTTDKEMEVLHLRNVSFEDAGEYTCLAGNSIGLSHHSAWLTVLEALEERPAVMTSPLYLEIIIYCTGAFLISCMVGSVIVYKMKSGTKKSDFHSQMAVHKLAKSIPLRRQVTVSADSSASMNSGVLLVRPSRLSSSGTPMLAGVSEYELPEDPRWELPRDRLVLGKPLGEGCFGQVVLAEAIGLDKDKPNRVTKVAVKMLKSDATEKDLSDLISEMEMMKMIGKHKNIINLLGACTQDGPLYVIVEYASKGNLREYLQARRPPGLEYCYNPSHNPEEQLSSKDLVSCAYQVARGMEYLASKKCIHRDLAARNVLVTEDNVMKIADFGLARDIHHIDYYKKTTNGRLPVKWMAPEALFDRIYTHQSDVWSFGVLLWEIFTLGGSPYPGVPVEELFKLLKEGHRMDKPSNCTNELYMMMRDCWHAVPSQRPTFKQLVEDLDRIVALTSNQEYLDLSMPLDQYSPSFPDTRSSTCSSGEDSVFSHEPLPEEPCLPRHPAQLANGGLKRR

[10] = target: FGFR2 (Homo sapiens, UniProt P21802); conditions: read-out: %Inh FGFR2
[11] = target: FLT4 (Homo sapiens, UniProt P35916); conditions: read-out: %Inh FLT4
Sequence of FLT4 (P35916 25-1363): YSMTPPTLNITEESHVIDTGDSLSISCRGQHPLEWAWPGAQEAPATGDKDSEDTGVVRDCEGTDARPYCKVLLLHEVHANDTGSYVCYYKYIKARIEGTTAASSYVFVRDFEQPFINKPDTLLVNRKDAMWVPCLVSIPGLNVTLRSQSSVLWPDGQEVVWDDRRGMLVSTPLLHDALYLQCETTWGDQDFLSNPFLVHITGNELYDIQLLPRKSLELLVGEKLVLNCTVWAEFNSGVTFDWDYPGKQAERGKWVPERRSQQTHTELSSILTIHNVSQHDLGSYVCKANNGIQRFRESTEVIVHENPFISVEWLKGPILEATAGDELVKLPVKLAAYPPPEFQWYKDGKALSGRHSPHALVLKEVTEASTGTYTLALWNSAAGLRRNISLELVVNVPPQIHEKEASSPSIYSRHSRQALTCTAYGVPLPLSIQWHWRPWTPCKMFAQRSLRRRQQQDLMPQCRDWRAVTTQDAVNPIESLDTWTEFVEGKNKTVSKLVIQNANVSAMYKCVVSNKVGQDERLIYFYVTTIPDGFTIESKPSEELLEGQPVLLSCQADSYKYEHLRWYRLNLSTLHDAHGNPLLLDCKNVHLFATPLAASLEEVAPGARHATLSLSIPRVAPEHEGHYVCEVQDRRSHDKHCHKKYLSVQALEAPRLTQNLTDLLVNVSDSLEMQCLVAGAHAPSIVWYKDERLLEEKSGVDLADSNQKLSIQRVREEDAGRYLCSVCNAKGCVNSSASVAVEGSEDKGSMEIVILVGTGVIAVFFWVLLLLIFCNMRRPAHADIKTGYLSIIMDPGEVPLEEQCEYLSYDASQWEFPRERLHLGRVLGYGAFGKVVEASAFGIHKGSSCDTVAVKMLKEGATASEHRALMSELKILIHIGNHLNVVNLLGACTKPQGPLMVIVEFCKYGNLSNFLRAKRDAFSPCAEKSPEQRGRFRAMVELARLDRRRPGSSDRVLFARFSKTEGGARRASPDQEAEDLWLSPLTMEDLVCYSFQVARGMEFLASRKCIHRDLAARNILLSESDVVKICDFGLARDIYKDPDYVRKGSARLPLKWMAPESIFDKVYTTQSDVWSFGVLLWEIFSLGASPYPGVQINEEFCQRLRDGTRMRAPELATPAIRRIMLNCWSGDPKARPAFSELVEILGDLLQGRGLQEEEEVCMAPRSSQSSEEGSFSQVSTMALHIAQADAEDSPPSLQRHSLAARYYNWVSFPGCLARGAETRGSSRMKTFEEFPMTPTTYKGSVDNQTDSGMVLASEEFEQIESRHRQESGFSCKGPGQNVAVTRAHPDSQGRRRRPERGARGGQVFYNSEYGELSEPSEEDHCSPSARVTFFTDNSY

[12] = target: HIPK2 (Homo sapiens, UniProt Q9H2X6); conditions: read-out: %Inh HIPK2
Sequence of HIPK2 (Q9H2X6 whole entry): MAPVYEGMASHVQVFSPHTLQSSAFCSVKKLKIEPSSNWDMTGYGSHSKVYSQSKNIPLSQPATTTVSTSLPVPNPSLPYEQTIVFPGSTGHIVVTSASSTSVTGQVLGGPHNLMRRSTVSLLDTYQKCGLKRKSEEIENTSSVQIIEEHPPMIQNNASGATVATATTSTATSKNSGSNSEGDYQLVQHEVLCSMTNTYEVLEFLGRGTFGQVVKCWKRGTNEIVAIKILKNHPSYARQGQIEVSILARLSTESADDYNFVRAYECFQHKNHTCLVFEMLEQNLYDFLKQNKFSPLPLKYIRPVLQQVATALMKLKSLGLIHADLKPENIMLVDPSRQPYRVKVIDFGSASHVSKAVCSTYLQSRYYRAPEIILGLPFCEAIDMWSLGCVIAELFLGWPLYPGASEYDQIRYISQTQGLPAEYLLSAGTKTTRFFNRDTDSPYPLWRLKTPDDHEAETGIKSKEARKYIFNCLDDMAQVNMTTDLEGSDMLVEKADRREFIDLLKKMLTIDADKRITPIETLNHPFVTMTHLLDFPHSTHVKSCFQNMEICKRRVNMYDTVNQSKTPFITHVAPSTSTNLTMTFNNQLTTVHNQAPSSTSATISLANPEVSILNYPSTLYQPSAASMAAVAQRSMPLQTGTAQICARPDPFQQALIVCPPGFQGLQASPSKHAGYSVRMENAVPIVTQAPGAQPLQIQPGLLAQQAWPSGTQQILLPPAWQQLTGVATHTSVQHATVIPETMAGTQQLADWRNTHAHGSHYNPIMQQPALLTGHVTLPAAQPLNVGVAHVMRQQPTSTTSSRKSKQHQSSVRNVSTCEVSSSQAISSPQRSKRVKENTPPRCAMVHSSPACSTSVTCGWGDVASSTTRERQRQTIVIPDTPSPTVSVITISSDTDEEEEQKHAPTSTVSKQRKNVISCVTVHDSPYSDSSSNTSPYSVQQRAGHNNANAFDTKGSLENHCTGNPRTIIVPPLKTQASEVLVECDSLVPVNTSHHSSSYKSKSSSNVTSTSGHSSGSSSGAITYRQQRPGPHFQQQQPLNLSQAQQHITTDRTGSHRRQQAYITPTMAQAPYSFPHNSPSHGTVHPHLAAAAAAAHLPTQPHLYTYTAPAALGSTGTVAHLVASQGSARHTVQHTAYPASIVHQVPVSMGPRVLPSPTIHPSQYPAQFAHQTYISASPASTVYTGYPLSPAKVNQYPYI

Sequence of BMPR1A (P36894 24-532): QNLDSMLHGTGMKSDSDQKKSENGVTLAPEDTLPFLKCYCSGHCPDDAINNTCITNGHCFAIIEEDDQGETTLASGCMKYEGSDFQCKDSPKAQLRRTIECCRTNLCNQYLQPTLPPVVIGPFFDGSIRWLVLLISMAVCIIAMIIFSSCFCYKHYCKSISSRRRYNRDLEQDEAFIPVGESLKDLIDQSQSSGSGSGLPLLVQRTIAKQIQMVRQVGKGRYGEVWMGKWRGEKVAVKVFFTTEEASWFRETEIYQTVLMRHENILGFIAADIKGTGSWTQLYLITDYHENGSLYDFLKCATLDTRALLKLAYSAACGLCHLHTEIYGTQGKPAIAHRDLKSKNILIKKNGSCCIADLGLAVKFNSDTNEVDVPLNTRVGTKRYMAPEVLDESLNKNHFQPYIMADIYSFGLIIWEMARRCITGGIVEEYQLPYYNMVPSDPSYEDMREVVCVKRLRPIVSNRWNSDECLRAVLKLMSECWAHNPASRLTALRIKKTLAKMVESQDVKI

| Structure (SMILES) | inhibition at 1 µM [1] [%] | inhibition at 1 µM [2] [%] | inhibition at 1 µM [3] [%] | inhibition at 1 µM [4] [%] | inhibition at 1 µM [5] [%] | inhibition at 1 µM [6] [%] | inhibition at 1 µM [7] [%] | inhibition at 1 µM [8] [%] | inhibition at 1 µM [9] [%] | inhibition at 1 µM [10] [%] | inhibition at 1 µM [11] [%] | inhibition at 1 µM [12] [%] |
| --- | --- | --- | --- | --- | --- | --- | --- | --- | --- | --- | --- | --- |
| Cn1cc(-c2cnc(N)c3c(-c4ccc5c(c4)CCN5C(=O)Cc4ccccc4)csc23)cn1 [UNC10225012A] | 1 | 6 | 1 | 0 | 0 | 20 | 62 | 7 | 28 | 40 | 31 | 0 |
| CS(=O)(=O)Cc1ccc(Nc2nccc(-c3c(-c4cccc(NC(=O)C5CCCCC5)c4)nn4ncccc34)n2)cc1 [UNC10225159A] | 0 | 19 | 27 | 18 | 0 | 10 | 38 | 0 | 0 | 41 | 52 | 14 |
| Cc1ccc(NC(=O)Nc2cccc(C(F)(F)F)c2)cc1 [UNC10225187A] | 94.6 | 0 | 0 | 0 | 0 | 28 | 0 | 1 | 1 | 0 | 12 | 0 |
| COc1cccc(OC)c1C(=O)Nc1cccc(-c2nn3ccccc3c2-c2ccnc(Nc3cccc(F)c3)n2)c1 [UNC10225310A] | 9 | 21 | 0 | 0 | 0 | 18 | 21 | 1 | 11 | 0 | 27 | 0 |
| O=c1cc(N2CCOCC2)nc2n(Cc3cccc(Cl)c3Cl)c(C3CC3)nn12 [UNC10225469A] | 15 | 0 | 0 | 0 | 0 | 8 | 0 | 0 | 0 | 1 | 10 | 0 |
